Reference: US20240238212A1, “LIPID COMPOUNDS AND LIPID NANOPARTICLE COMPOSITIONS” (SUZHOU ABOGEN BIOSCIENCES CO., LTD., priority 2022, published 2024)

Assays:
[1] = Encapsulation efficiency of lipid nanoparticles (Quant-it Ribogreen RNA assay); type: physicochemical; conditions: LNP comprising the compound, hEPO mRNA
Protocol: (§1) Briefly, a cationic lipid provided herein, DSPC, cholesterol, and PEG-lipid were solubilized in ethanol at a molar ratio of 50:10:38.5:1.5, and mRNA were diluted in 10 to 50 mM citrate buffer, pH=4. The LNPs were prepared at a total lipid to mRNA weight ratio of approximately 10:1 to 30:1 by mixing the ethanolic lipid solution with the aqueous mRNA solution at a volume ratio of 1:3 using a microfluidic apparatus, total flow rate ranging from 9-30 mL/min. Ethanol were thereby removed and replaced by DPBS using dialysis. Finally, the lipid nanoparticles were filtered through a 0.2 μm sterile filter.
(§2) Lipid nanoparticle size were determined by dynamic light scattering using a Malvern Zetasizer Nano ZS (Malvern UK) using a 173° backscatter detection mode. The encapsulation efficiency of lipid nanoparticles were determined using a Quant-it Ribogreen RNA quantification assay kit (Thermo Fisher Scientific, UK) according to the manufacturer's instructions.

[2] = Lipid nanoparticle size and polydispersity by dynamic light scattering; type: physicochemical; conditions: LNP comprising the compound, hEPO mRNA; for Size (nm): cationic lipid/DSPC/cholesterol/PEG-lipid 50:10:38.5:1.5
Protocol: as §1, §2

[3] = Lipid clearance study: lipid remaining in liver tissue by LC-MS/MS; conditions: mouse liver
Protocol: LNPs were injected into mice via the tail vein (ICR female, IV, 0.5 mg mRNA/kg), then mice were anesthetized under carbon dioxide at different time (e.g., 6 h, 24 h, and 48 h) after administration and sacrificed via cardiac puncture. Liver tissue were collected immediately, and then washed by ice-cold saline. Liver samples were weighed and homogenized in ice water bath by adding pre-chilled 20% methanol-water (v/v) at 2˜8° C. with the ratio of 1:5 (w/v). The homogenized tissue samples were stored in −90˜−60° C. freezer prior to analysis.
All liver tissue homogenate samples were allowed to thaw at room temperature. An aliquot of 50 μL of sample was added with 50 μL MgCl2 (2M), then added with ACN which contains of Verapamil, 5 ng mL-1 and Glibenclamide, 50 ng mL-1 and Diclofenac, 200 ng mL^−1 and Tolbutamide, 200 ng mL^−1 for protein precipitation, then centrifuged at 13000 rpm for 8 min. Then 100 μL of supernatant was added with 100 μL water, then vortexed well. An aliquot of 5 μL of the mixture was injected into the LC-MS/MS system.

[4] = test system: human erythropoietin (hEPO) mRNA expression; assay: Animal Study 1: hEPO mRNA LNPs i.v. in mice, serum EPO by ELISA; type: in vivo; conditions: female ICR mice, 0.5 mg/kg tail vein injection, blood e.g. 6 hours post administration; relative to MC3 LNP
Protocol: Lipid nanoparticles comprising compounds in the following table encapsulating human erythropoietin (hEPO) mRNA were systemically administered to 6-8 week old female ICR mice (Xipuer-Bikai, Shanghai) at 0.5 mg/kg dose by tail vein injection and mice blood were sampled at specific time points (e.g., 6 hours) post administration. In addition to the aforementioned tested groups, lipid nanoparticles comprising dilinoleylmethyl-4-dimethylaminobutyrate (DLin-MC3-DMA, usually abbreviated to MC3) encapsulating hEPO mRNA were similarly administered at the same dose to age and gender comparative groups of mice as a positive control.
Mice were euthanized by CO2 overdoses after the last sampling time point. Serum were separated from total blood by centrifugation at 5000 g for 10 minutes at 4 T, snap-frozen and stored at −80 T for analysis. ELISA assay were carried out using a commercial kit (DEP00, R&D systems) according to manufacturer's instructions.
Characteristics of tested lipid nanoparticles, including EPO expression levels over MC3 measured from the tested group are listed in the table below.

[5] = Apparent pKa of LNP formulations (TNS fluorescence assay); type: physicochemical; conditions: LNP formulation, TNS assay (Table 2)
Protocol: As reported in literature, the apparent pKa of LNP formulations correlates with the delivery efficiency of LNPs for nucleic acids in vivo. The apparent pKa of each formulation was determined using an assay based on fluorescence of 2-(p-toluidino)-6-napthalene sulfonic acid (TNS). LNP formulations comprising of cationic lipid/DSPC/cholesterol/DMG-PEG (50/10/38.5/1.5 mol %) in PBS were prepared as described above. TNS was prepared as a 300 μM stock solution in distilled water. LNP formulations were diluted to 0.1 mg/mL total lipid in 3 mL of buffered solutions containing 50 mM sodium citrate, 50 mM sodium phosphate, 50 mM sodium borate, and 30 mM sodium chloride where the pH ranged from 3 to 9. An aliquot of the TNS solution was added to give a final concentration of […] and following vortex mixing fluorescence intensity was measured at room temperature in a Molecular Devices Spectramax iD3 spectrometer using excitation and mission wavelengths of 325 nm and 435 nm. A sigmoidal best fit analysis was applied to the fluorescence data and the pKa value was measured as the pH giving rise to half-maximal fluorescent intensity.

Row | Structure (SMILES) | Encapsulation efficiency [1] | Polydispersity [2] | Size (nm) [2] | % Dose Remaining in Liver Tissue, 6 h ([3]; 6 h after 0.5 mg/kg i.v. bolus dose mRNA) | % Dose Remaining in Liver Tissue, 24 h ([3]; 24 h after 0.5 mg/kg i.v. bolus dose mRNA) | % Dose Remaining in Liver Tissue, 48 h ([3]; 48 h after 0.5 mg/kg i.v. bolus dose mRNA) | Apparent pKa [5] | EPO expression over MC3 [4]
1 | CCCCCCCC(=O)OCC(CCCCN(CCCCC(COC(=O)CCCCCCC)COC(=O)CCCCCCC)CCOCCO)COC(=O)CCCCCCC [Compound 5] | 89.49% | 0.073 | 82.87 nm | 2.646% | 0.098% | 0% |  | A (≥2)
2 | CCCCCCCC(=O)OCC(CCCCN(CCCCC(COC(=O)CCCCCCC)COC(=O)CCCCCCC)[C@H]1C=C[C@@H](CO)C1)COC(=O)CCCCCCC [Compound 48] | 84.12% | 0.027 | 92.53 nm |  |  |  | 6.143 | A (≥2)
3 | CCCCCCCC(=O)OCC(CCCCN(CCCCC(COC(=O)CCCCCCC)COC(=O)CCCCCCC)C1CC(CO)C1)COC(=O)CCCCCCC (stereo not shown) [Compound 54] | 94.90% | 0.109 | 63.7 nm |  |  |  | 6.679 | B (≥1 and <2)
4 | CCCCCCCC(=O)OCC(CCCCN(CCCCC(COC(=O)CCCCCCC)COC(=O)CCCCCCC)[C@H]1CC[C@H](CO)CC1)COC(=O)CCCCCCC [Compound 59] | 72.86% | 0.066 | 168.4 nm |  |  |  | 6.633 | A (≥2)
5 | CCCCCCCC(=O)OCC(CCCCN(CCCCC(COC(=O)CCCCCCC)COC(=O)CCCCCCC)C1CC(CO)(CO)C1)COC(=O)CCCCCCC [Compound 61] | 91.26% | 0.066 | 72.95 nm |  |  |  | 7.32 | C (≥0.1 and <1)
6 | CCCCCCCCC(CCCCCC)CNC(=O)CCCCCN(CCCCC(COC(=O)CCCCCCC)COC(=O)CCCCCCC)CC1(CO)CCCC1 (stereo not shown) [Compound 62] | 88.45% | 0.031 | 71.06 nm |  |  |  | 5.299 | D (<0.1)
7 | CCCCCCCCC(CCCCCC)CNC(=O)CCCCCN(CCCCC(COC(=O)CCCCCCC)COC(=O)CCCCCCC)CCC1(O)CCCCC1 (stereo not shown) [Compound 63] | 90.10% | 0.159 | 130.62 nm |  |  |  | 6.297 | C (≥0.1 and <1)
8 | CCCCCCCC(=O)OCC(C)(COC(=O)CCCCCCC)COC(=O)CCCCCN(CCO)CCCCCC(=O)OCC(C)(COC(=O)CCCCCCC)COC(=O)CCCCCCC [Compound 64] | 94.94% | 0.094 | 83.57 nm |  |  |  | 6.575 | A (≥2)
9 | CCCCCCCCCCCC(=O)OCC(COC(=O)CCCCCCCCCCC)COC(=O)CCCCCN(CCO)CCCCCC(=O)OCC(COC(=O)CCCCCCCCCCC)COC(=O)CCCCCCCCCCC [Compound 73] | 96.37% | 0.010 | 71.34 nm |  |  |  | 6.536 | C (≥0.1 and <1)
10 | CCCCCCCCCCCCC(=O)OCC(COC(=O)CCCCCCCCCCCC)COC(=O)CCCCCN(CCO)CCCCCC(=O)OCC(COC(=O)CCCCCCCCCCCC)COC(=O)CCCCCCCCCCCC [Compound 74] | 94.82% | 0.012 | 66.23 nm |  |  |  | 6.283 | C (≥0.1 and <1)
11 | CCCCCCCC(=O)OCC(CC)(COC(=O)CCCCCCC)COC(=O)CCCCCN(CCO)CCCCCC(=O)OCC(CC)(COC(=O)CCCCCCC)COC(=O)CCCCCCC [Compound 82] | 95.75% | 0.010 | 69.37 nm |  |  |  | 6.342 | A (≥2)
12 | CCCCCCCCC(CCCCCC)COC(=O)CCCCCN(CCO)CCCCCC(=O)OCC(C)(COC(=O)CCCCCCC)COC(=O)CCCCCCC (stereo not shown) [Compound 83] | 94.79% | 0.051 | 67.54 nm |  |  |  | 6.547 | A (≥2)
13 | CCCCCCCCC(CCCCCC)COC(=O)CCCCCN(CCO)CCCCCC(=O)OCC(CC)(COC(=O)CCCCCCC)COC(=O)CCCCCCC (stereo not shown) [Compound 84] | 94.81% | 0.022 | 72.82 nm |  |  |  | 6.355 | A (≥2)

Now from value to compound, other results behind:

Row | Encapsulation efficiency [1] | Polydispersity [2] | Size (nm) [2] | % Dose Remaining in Liver Tissue, 6 h ([3]; 6 h after 0.5 mg/kg i.v. bolus dose mRNA) | % Dose Remaining in Liver Tissue, 24 h ([3]; 24 h after 0.5 mg/kg i.v. bolus dose mRNA) | % Dose Remaining in Liver Tissue, 48 h ([3]; 48 h after 0.5 mg/kg i.v. bolus dose mRNA) | Apparent pKa [5] | Structure (SMILES) | EPO expression over MC3 [4]
14 | 96.01% | 0.040 | 62.56 nm |  |  |  | 6.338 | CCCCCCCC(=O)OCC(COC(=O)CCCCCCC)COC(=O)CCCCCCCN(CCO)CCCCCCCC(=O)OCC(COC(=O)CCCCCCC)COC(=O)CCCCCCC [Compound 65] | A (≥2)
15 | 95.46% | 0.010 | 113.3 nm |  |  |  | 6.379 | CCCCCCCC(=O)OCC(COC(=O)CCCCCCC)COC(=O)CCCCCN(CCCO)CCCCCC(=O)OCC(COC(=O)CCCCCCC)COC(=O)CCCCCCC [Compound 66] | A (≥2)
16 | 94.95% | 0.026 | 87.2 nm |  |  |  | 6.705 | CCCCCCCC(=O)OCC(COC(=O)CCCCCCC)COC(=O)CCCCCN(CCCCO)CCCCCC(=O)OCC(COC(=O)CCCCCCC)COC(=O)CCCCCCC [Compound 67] | A (≥2)
17 | 94.91% | 0.010 | 100.16 nm |  |  |  | 6.582 | CCCCCCCC(=O)OCC(COC(=O)CCCCCCC)COC(=O)CCCCCN(CCCCCO)CCCCCC(=O)OCC(COC(=O)CCCCCCC)COC(=O)CCCCCCC [Compound 68] | A (≥2)
18 | 94.81% | 0.012 | 106.71 nm |  |  |  | 6.271 | CCCCCCCC(=O)OCC(COC(=O)CCCCCCC)COC(=O)CCCCCN(CCCCCCO)CCCCCC(=O)OCC(COC(=O)CCCCCCC)COC(=O)CCCCCCC [Compound 69] | B (≥1 and <2)
19 | 95.70% | 0.037 | 67.7 nm |  |  |  | 6.171 | CCCCCCCC(=O)OCC(COC(=O)CCCCCCC)COC(=O)CCCCCN(CCCCCCCO)CCCCCC(=O)OCC(COC(=O)CCCCCCC)COC(=O)CCCCCCC [Compound 70] | B (≥1 and <2)
20 | 96.34% | 0.098 | 68.05 nm |  |  |  | 6.599 | CCCCCCCCCC(=O)OCC(COC(=O)CCCCCCCCC)COC(=O)CCCCCN(CCO)CCCCCC(=O)OCC(COC(=O)CCCCCCCCC)COC(=O)CCCCCCCCC [Compound 71] | A (≥2)
21 | 96.28% | 0.111 | 72.07 nm |  |  |  | 6.728 | CCCCCCCCCCC(=O)OCC(COC(=O)CCCCCCCCCC)COC(=O)CCCCCN(CCO)CCCCCC(=O)OCC(COC(=O)CCCCCCCCCC)COC(=O)CCCCCCCCCC [Compound 72] | A (≥2)
22 | 93.47% | 0.074 | 66.83 nm |  |  |  | 6.703 | CCCCCCCCC(=O)OCC(COC(=O)CCCCCCCC)COC(=O)CCCCCN(CCO)CCCCCC(=O)OCC(COC(=O)CCCCCCCC)COC(=O)CCCCCCCC [Compound 75] | A (≥2)
